{"source": "patent US8652540B2", "about": "“Method of using rhein for treating fibrotic conditions and tumors” (priority 2012, dated 2014)", "key": {"[1]": {"assay": "Body weights and tolerability of mice given Rhein orally", "format": "in vivo, C57BL6 mice", "protocol": "(§1) C57BL6 mice at age of 6 to 8 weeks with body weight in the range of 20 to 24 grams were used in these experiments. Mice were randomly assigned into 5 groups. Control group received saline injections only; Rhein group was fed with Rhein (≧98% pure) dissolved in 0.5% sodium carboxymethyl cellulose (Sigma, USA) in a single dose of 0.4 mL at 50 mg/kg/day for 6 weeks; Cerulein group received 6 cerulein injections at 50 μg/kg three times a week for 6 weeks; Cer+Rh 6w group received cerulein injections same as Cerulein group plus oral gavage of a single dose of Rhein at 50 mg/kg/day from the first day of experimental period till the end in a total of 6 weeks; Cer+Rh 3w group received cerulein injections same as Cerulein group and Cer+Rh 6w group, but was given with Rhein at 50 mg/kg/day starting the first day of week 4 till the end of experiment in a total of 3 weeks (n=6/group). Upon scarification, pancreata were immediately removed, weighed, trimmed from fat and fixed in 4% paraformaldehyde-phosphate buffered saline (PBS) overnight at 4° C. Samples were then processed, embedded in paraffin wax, sectioned and subjected to Hematoxylin-eosin (H & E) staining or Sirius Red staining Levels of TNF-α· in animal serum samples were determined using commercial ELISA kits. Proteins extracted from pancreatic tissues were subjected to Western blotting analyses."}, "[2]": {"test_system": "TNF-α", "assay": "Serum TNF-α by ELISA, cerulein-induced chronic pancreatitis mice", "format": "in vivo, C57BL6 mice", "protocol": "as §1"}, "[3]": {"assay": "Pancreatic weight and H&E histology, cerulein-induced chronic pancreatitis mice", "format": "in vivo, C57BL6 mice", "protocol": "as §1"}, "[4]": {"test_system": "α-SMA", "assay": "α-SMA expression in pancreatic tissues (immunofluorescence, Western blotting), cerulein-treated mice", "format": "in vivo, C57BL6 mice", "details": "Rhein oral 50 mg/kg/day for 6 weeks", "protocol": "as §1"}, "[5]": {"test_system": "collagen", "assay": "Sirius Red staining of collagenous proteins in pancreas of CP mice", "format": "in vivo, C57BL6 mice", "protocol": "as §1"}, "[6]": {"test_system": "fibronectin 1 (FN1)", "assay": "Western blotting of fibronectin in pancreatic tissues of CP mice", "format": "in vivo, C57BL6 mice", "details": "CP mice treated with Rhein vs non-Rhein-treated CP mice", "protocol": "as §1"}, "[7]": {"test_system": "LTC-14 cells", "format": "cell-based", "protocol": "LTC-14 cells were cultured at 37° C. under a humidified condition of 95% air and 5% CO2 in IMDM supplemented with 10% fetal bovine serum (FBS). Cells used in all the experiment were among passages 9 to 22. LTC-14 cells were seeded at a density of 1×10^4/well in a 96-well plate, and incubated with different concentrations of Rhein (dissolved in DMSO) for 24 hours. MTT reagent was added to the cells at the end of the 24-hour treatment period. After a 3-hour reaction time, MTT products were dissolved in DMSO and OD at 570 nm was taken."}, "[8]": {"test_system": "Tgf-β1", "assay": "Real-time PCR, TGF-β-stimulated LTC-14 cells: Tgf-β1", "format": "cell-based, rat", "details": "Rhein at 1, 10 and 100 μM; TGF-β 5 ng/mL", "source_text": "(§2) The synthesized cDNA template was applied to amplifications with rat-specific primers for Tgf-β1, Acta2, Col1-α1 and Mmp2 in a real-time PCR sequencer. Expression of the gene of interest was expressed as a Ct value and normalized to the internal control Gapdh. […] After amplifications by real-time PCR, expression of the gene of interest was expressed as a Ct value and normalized to the internal control Gapdh."}, "[9]": {"test_system": "Acta2", "assay": "Real-time PCR, TGF-β-stimulated LTC-14 cells: Acta2", "format": "cell-based, rat", "details": "Rhein at 1, 10 and 100 μM; TGF-β 5 ng/mL", "source_text": "as §2"}, "[10]": {"test_system": "Col1-α1", "assay": "Real-time PCR, TGF-β-stimulated LTC-14 cells: Col1-α1", "format": "cell-based, rat", "details": "Rhein at 1, 10 and 100 μM; TGF-β 5 ng/mL", "source_text": "as §2"}, "[11]": {"test_system": "Fn1", "assay": "Expression of Fn1 in TGF-β-stimulated LTC-14 cells", "format": "cell-based, rat", "details": "recombinant TGF-β"}, "[12]": {"test_system": "α-SMA", "assay": "Immunofluorescence assay for α-SMA in TGF-β-stimulated LTC-14 cells", "format": "cell-based, rat", "details": "TGF-β 5 ng/mL, Rhein 10 μM", "protocol": "To study the effect of Rhein on TGF-β induced expression of fibrotic filament formation, LTC-14 cells were grown on poly-L-lysine coated glass coverslips at a density of 1×10^5 in a 24-well plate pre-incubated with TGF-β (5 ng/mL) for 24 hours before the treatment with or without Rhein (10 μM). At the time of harvest, cells were subjected to immunofluorescence assay for α-SMA immunoreactivities."}, "[13]": {"test_system": "LTC-14 cells", "assay": "TGF-β induced transformation of PSCs to myofibroblast-like cells (light microscope)", "format": "cell-based, rat", "details": "TGF-β 5 ng/mL, Rhein 10 μM", "protocol": "To study the effect of Rhein on TGF-β induced transformation of PSCs to myofibroblast-like cells, LTC-14 cells were grown at a density of 1×10^5 in a 24-well plate, pre-incubated with TGF-β (5 ng/mL) for 24 hours and treated with or without Rhein (10 μM). At the time of harvest, cells were examined with morphological alterations under a light microscope."}, "[14]": {"details": "Rhein group: 50 mg/kg/day oral for 6 weeks, no cerulein"}}, "note": "Marks after values point to notes of the source that are not given here."}
{"smiles": "O=C(O)c1cc(O)c2c(c1)C(=O)c1cccc(O)c1C2=O", "note": "[Rhein, 9,10-Dihydro-4,5-dihydroxy-9,10-dioxo-2-anthracenecarboxylic acid]", "values": [{"measurement": "Body wt (g), Mean", "setting": "[1]; Cer + Rh 3 wk: cerulein injections plus Rhein 50 mg/kg/day from week 4, 3 weeks", "result": "24.07* g"}, {"measurement": "Body wt (g), Mean", "setting": "[1]; Cer + Rh 6 wk: cerulein injections plus Rhein 50 mg/kg/day oral gavage for 6 weeks", "result": "23.98* g"}, {"measurement": "Body wt (g), Mean", "setting": "[1]; [14]", "result": 26.10, "unit": "g"}, {"measurement": "adverse effects", "setting": "[1]; oral administration, animal study", "result": "no adverse effects"}, {"measurement": "TNF-α (ng/mL), Mean", "setting": "[2]; Cer + Rh 3 wk: cerulein plus Rhein 50 mg/kg/day from week 4, 3 weeks", "result": "32.52# ng/mL"}, {"measurement": "TNF-α (ng/mL), Mean", "setting": "[2]; Cer + Rh 6 wk: cerulein plus Rhein 50 mg/kg/day for 6 weeks", "result": "31.18# ng/mL"}, {"measurement": "TNF-α (ng/mL), Mean", "setting": "[2]; [14]", "result": 14.43, "unit": "ng/mL"}, {"measurement": "histology of pancreatic tissues (acinar loss, lymphocyte infiltration, fibrosis)", "setting": "[3]; CP mice, Rhein oral 50 mg/kg/day, H&E", "result": "less acinar loss (FIG. 1), lymphocyte infiltration and fibrosis"}, {"measurement": "pancreatic weight", "setting": "[3]; cerulein-induced pancreatitis mice, vs Cerulein group", "result": "significant restoration of pancreatic weight"}, {"measurement": "expression of α-SMA in the pancreatic tissues", "setting": "[4]", "result": "significantly inhibits"}, {"measurement": "amounts of collagenous protein", "setting": "[5]", "result": "notably reduced"}, {"measurement": "protein expression levels of fibronectin", "setting": "[6]", "result": "remarkably decreased"}, {"measurement": "PSC proliferation", "setting": "[7]; in vitro, dose-dependent", "result": "suppress PSC proliferation"}, {"measurement": "LD50 (cytotoxicity)", "setting": "[7]; rat, 24 h", "result": "approximately 130 μM"}, {"measurement": "TGF-β-elevated mRNA expression level of Tgf-β1", "setting": "[8]", "result": "significantly repressed"}, {"measurement": "TGF-β-elevated mRNA expression level of Acta2", "setting": "[9]", "result": "significantly repressed"}, {"measurement": "TGF-β-elevated mRNA expression level of Col1-α1", "setting": "[10]", "result": "significantly repressed"}, {"measurement": "TGF-β-stimulated expression level of Fn1", "setting": "[11]", "result": "suppresses"}, {"measurement": "α-SMA expression (immunofluorescent staining)", "setting": "[12]", "result": "remarkably suppresses"}, {"measurement": "transformation of LTC-14 cells into myofibroblast-like phenotype", "setting": "[13]", "result": "represses the transformation"}]}
